Laboratory results published in article PMC8185805, “An improved method for the incorporation of fluoromethyl ketones into solid phase peptide synthesis techniques” (RSC Advances, 2021).
*: point of attachment. Cbz = O=C(OCc1ccccc1)*; CH2F = FC*

Test system: 3CL^pro of SARS-CoV-2
Details: pH 7.6

## Cbz-SAVLD(OMe)-CH2F [compound 15]
  3CL^pro protease activity in the presence of PFMK inhibitor (gel-based cleavage of FLAG-His-SAVLQ-nsp9): completely abolished
